Patent US8580516B2, “Methods and compositions for direct detection of DNA damage” (University of Chicago, priority 2008, dated 2013)

What was measured:
mammalian cells = conditions: via misincorporation and/or mispairing during replication; cited from earlier work
[1] = Privat and Sowers 1996; cited from earlier work
several cell lines = conditions: cited from earlier work
HL60 cells = experiment: In vitro differentiation of HL60 cells to neutrophils, CD11b flow cytometry; format: cell-based; conditions: 1 μM, five days, FITC anti-human CD11b flow cytometry
Protocol: HL60 cells were grown to confluence (1×10^6 cells/ml) in Roswell Park Memorial Institute media (“RPMI”) 1640 media supplemented with 10% fetal bovine serum, 1% penicillin/streptomycin and 2 mM L-glutamine at 37° C. in 5% CO2 and treated with ethanol carrier, 1 μM ATRA or 1 μM ATRA, 6 nM Vitamin D3 and 30 ng/ml G-CSF for five days.

O=Cc1cn([C@H]2C[C@H](O)[C@@H](COP(=O)(O)OP(=O)(O)OP(=O)(O)O)O2)c(=O)[nH]c1=O [5-FodUTP, 5-formyl deoxyuridine triphosphate]
mutations induced in cells (mammalian cells): induces both transition and transversion mutations

O=Cc1cn([C@H]2C[C@H](O)[C@@H](CO)O2)c(=O)[nH]c1=O [5-FodU, 5-formyldeoxyuridine]
pKa [1]: 6.8
IC50 (several cell lines; 5-FodU fed to tissue culture cells, several cell lines, read-out: IC50 (toxicity)): ~1000 nM
toxicity in cells lacking thymidine kinase or thymidylate synthetase (several cell lines; cells lacking thymidine kinase or thymidylate synthetase): lost

CC1=C(/C=C/C(C)=C/C=C/C(C)=C/C(=O)O)C(C)(C)CCC1 [ATRA, all-trans retinoic acid]
expression of CD11b (HL60 cells): increased expression of CD11b

O=c1ccn([C@@H]2O[C@H](CO)[C@@H](O)[C@H]2O)c(=O)[nH]1 [uridine]
pKa [1]: 9.4
